This is an account of results in patent US20230045509A1, “PHARMACEUTICAL COMPOSITIONS COMPRISING CABOTEGRAVIR” (ViiV Healthcare Company, priority 2019, published 2023).

Data set [1] is described as follows: Wettability study to define limits of cabotegravir suspension strength. The data set is classed as physicochemical. On the procedure:
Wettability of Cabotegravir in 38 mg/mL P338, 35 mg/mL PEG3350, and 20 mg/mL mannitol was assessed to estimate the approximate concentration limit for Cabotegravir suspension in this vehicle. This was performed by adding increasing amounts of Cab to 5 g of vehicle until a gross change in coarse suspension properties was observed.

For the next data set, the system named is HIV-1 strains. Conditions: integrase strand transfer inhibitor; background statement; cited from earlier work.

In the case of `C[C@H]1CO[C@@H]2Cn3cc(C(=O)NCc4ccc(F)cc4F)c(=O)c(O)c3C(=O)N12` [Cabotegravir, N-((2,4-Difluorophenyl)methyl)-6-hydroxy-3-methyl-5,7-dioxo-2,3,5,7,11,11a hexahydro(1,3)oxazolo(3,2-a)pyrido(1,2-d)pyrazine-8-carboxamide], the Gross viscosity result in data set [1] (580† mg/mL Cabotegravir (calculated using approximated densities) in same vehicle) is given as “Boundary of thickening”; in data set [1] (600† mg/mL Cabotegravir (calculated using approximated densities) in same vehicle), “Thicker, but flowable”; in data set [1] (635† mg/mL Cabotegravir (calculated using approximated densities) in same vehicle), “Slightly paste-like”. The “upper boundary of Cabotegravir solid suspension concentration” value in data set [1] (vehicle 38 mg/mL P338, 35 mg/mL PEG3350, 20 mg/mL mannitol) was no more than 600 mg/mL. Further, in the data set with HIV-1 strains, the potency entry is “subnanomolar potency”.
